From PMC6731241, “L-Type Amino Acid Transporter 1 (LAT1/Lat1)-Utilizing Prodrugs Can Improve the Delivery of Drugs into Neurons, Astrocytes and Microglia” (Scientific Reports, 2019)
Where two headings read alike, the source gives them in different places. Blank lines part the entries; values can stand above or below the molecule they belong to.

Experiments:
[1] = design: method as in PMID 28662899, PMID 27266990; settings: unspecific brain tissue binding, fraction unbound (fu,brain), equilibrium dialysis; cited from earlier work
mouse primary neurons = test: Cellular uptake of compounds into primary neurons; assay type: cell-based; settings: 25, 50 and 100 µM (Fig. 4c)
Experimental: (§1) Pre-incubation was done with 500 μL of pre-warmed HBSS at 37 °C for 10 min before adding substrates (250 μL in HBSS) for the uptake experiments. The ability of brain cell to carry a known LAT1/Lat1 substrate, the cells were incubated with [^14C]-L-leucine at 37 °C for 2.5 min in uptake buffer (HBSS, 250 μL) containing 0.76–75 μM (0.25 mCi/ml) of [^14C]-L-leucine (PerkinElmer, Waltham, MA, USA).

[2] = test system: immortalized microglia (BV2); test: Cellular uptake of compounds into immortalized microglia (BV2); assay type: cell-based, mouse; settings: 25, 50 and 100 µM (Fig. 4c)
Experimental: as §1

[3] = test system: primary cortical neurons and immortalized microglia; test: Cellular uptake of compounds, neurons and microglia (joint range); assay type: cell-based, mouse; settings: for Uptake of prodrug relative to parent drug 2: primary cortical neurons and immortalized microglia
Experimental: as §1
(§2) The protein concentrations on each plate were determined as a mean of three samples by Bio-Rad Protein Assay, based on the Bradford dye-binding method, using bovine serum albumin (BSA) as a standard protein and measuring the absorbance (595 nm) by multiplate reader (EnVision, Perkin Elmer, Inc., Waltham, MA, USA).

[4] = Bioconversion in immortalized BV2 microglia homogenate; assay type: in vitro ADME, mouse; settings: for half-life at 400 µM: mouse, pH 7.4, 37 °C
Experimental: (§3) The rates of bioconversion of all studied prodrugs in immortalized BV2 microglia and primary astrocytes homogenates were determined at 37 °C. The cell homogenates were prepared by homogenizing 10 × 10^6 cells/ml in HBSS (pH 7.4) with SoniPerp 150 Plus disintegrator (MSE Ltd., London, UK) for 2 s × 3. The incubation mixtures were prepared by mixing cell homogenate (final protein concentration 1.0 mg/mL) with HBSS buffer and 10 mM prodrug stock solution in DMSO (the final concentration of prodrugs was 400 µM and the DMSO concentration […]). The mixture was then incubated for 5 h and the samples (50 µL) were withdrawn at appropriate intervals. The proteins in the samples were precipitated with ice-cold acetonitrile (150 µL) and the samples were centrifuged for 5 min at 12 000 × g at room temperature. The supernatants were collected and analyzed by the LC-MS methods as reported earlier[19],[24],[26]. In blank reactions (chemical stability), the cell homogenate was replaced with same volume of buffer. The pseudo-first-order half-lives (t½) for the rates of bioconversion of the prodrugs were calculated from the slope of the linear portion of the plotted logarithm of remaining prodrug concentration versus time.

[5] = Bioconversion in primary astrocytes homogenate; assay type: in vitro ADME, mouse; settings: for half-life at 400 µM: mouse, pH 7.4, primary astrocytes homogenate, 37 °C
Experimental: as §3

[6] = cited from earlier work
[7] = cited from earlier work; remark: listed apart in the source
mouse primary astrocytes = test: Cellular uptake of compounds into primary astrocytes; assay type: cell-based
Experimental: as §1, §2

Lat1 [8] = biological target: T1, Lat1 (Mus musculus, UniProt Q9Z127); test: Competitive prodrug uptake with LAT1/Lat1-inhibitor (KMH-233), all cell types; assay type: cell-based; design: neurons and microglia also express functional Lat1 on their cell surface; endogenous in cells; host or cells: mouse primary cortical neurons, mouse primary astrocytes, immortalized mouse microglia (BV2); settings: 100 µM KMH-233, range over all cell types
T1 sequence (Q9Z127 whole entry): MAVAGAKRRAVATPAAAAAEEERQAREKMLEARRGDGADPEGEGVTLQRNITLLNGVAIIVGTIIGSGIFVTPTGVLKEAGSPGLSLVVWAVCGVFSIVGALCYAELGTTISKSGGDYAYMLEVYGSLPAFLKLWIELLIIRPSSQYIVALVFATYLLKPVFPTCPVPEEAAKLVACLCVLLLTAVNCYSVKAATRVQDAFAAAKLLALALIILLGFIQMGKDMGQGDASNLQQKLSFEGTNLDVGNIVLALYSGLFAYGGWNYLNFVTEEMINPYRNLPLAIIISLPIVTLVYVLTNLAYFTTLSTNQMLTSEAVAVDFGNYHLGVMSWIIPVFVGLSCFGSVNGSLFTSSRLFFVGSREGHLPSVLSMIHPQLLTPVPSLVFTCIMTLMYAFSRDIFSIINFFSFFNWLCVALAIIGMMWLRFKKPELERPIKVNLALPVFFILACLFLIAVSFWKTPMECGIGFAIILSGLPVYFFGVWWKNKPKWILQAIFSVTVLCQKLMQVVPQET
T1 sequence (P10852 whole entry partner): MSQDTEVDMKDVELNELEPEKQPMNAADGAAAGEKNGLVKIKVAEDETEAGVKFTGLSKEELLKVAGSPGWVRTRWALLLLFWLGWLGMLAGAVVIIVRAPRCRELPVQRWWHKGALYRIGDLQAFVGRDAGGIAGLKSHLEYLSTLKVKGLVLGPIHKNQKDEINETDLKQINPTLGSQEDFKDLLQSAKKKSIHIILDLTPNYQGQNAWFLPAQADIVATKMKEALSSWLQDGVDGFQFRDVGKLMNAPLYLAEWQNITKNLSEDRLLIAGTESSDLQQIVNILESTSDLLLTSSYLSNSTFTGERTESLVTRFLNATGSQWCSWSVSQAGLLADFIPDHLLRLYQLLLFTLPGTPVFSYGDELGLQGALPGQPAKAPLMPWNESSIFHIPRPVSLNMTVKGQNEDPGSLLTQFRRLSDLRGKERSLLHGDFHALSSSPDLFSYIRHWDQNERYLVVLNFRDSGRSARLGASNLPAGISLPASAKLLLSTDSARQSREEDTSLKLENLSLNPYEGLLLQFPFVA
Experimental: The competitive uptake in the presence of LAT1/Lat1-inhibitor (KMH-233) was carried out as described above with HBSS buffer solution containing 1–10 µM of the studied compounds. The cells were pre-incubated with 100 µM LAT1/Lat1-inhibitor for 10 min and the incubation mixture was removed before adding the studied prodrug and LAT1/Lat1-inhibitor on the cells. The competitive uptake (30 min) with the inhibitor was then carried out as the normal uptake described above. The amounts of studied compounds were analyzed by the LC-MS method and calculated from the spiked standard curve and normalized with the protein concentrations.

[9] = test system: immortalized microglia (BV2); test: Cell viability of immortalized microglia (resazurin); assay type: cell-based; settings: 100 µM, 24 h
Experimental: 2. Effects of LAT1-Utilizing Prodrugs and Their Parent Drugs on the Cell Viability of Immortalized
Immortalized microglia (BV2) were seeded at the density of 2 × 10^4 cells/well onto collagen-coated 96-well plates. The cells were used for the proliferation experiments one day after seeding. A concentration of 100 µM of studied compounds were added into the growth medium and incubated for 24 h, after which the cell viability was determined by resazurin cell proliferation kit (Sigma, St.
Louis, MO, USA). The samples were measured fluorometrically by monitoring the increase in fluorescence at a wavelength of 590 nm using an excitation wavelength of 560 nm (EnVision, Perkin Elmer, Inc., Waltham, MA, USA), which is directly proportional to aerobic respiration and cellular metabolism of cells. The cell death was confirmed in the decrease of cell amount by visualizing the […]
Figure S2. The cell viability of immortalized microglia (BV2) after 24 h incubation of 100 µM LAT1-utilizing prodrugs (PD1-PD6) and their parent drugs (D1-D3) presented as percentages (%) compared to the untreated cells (ctrl) (mean ± SD, n=3-6). An asterisk denotes a statistically significant difference from the respective control (** P < 0.01, * P < 0.05 one-way ANOVA, followed by […]

LAT1/Lat1 = test system: LAT1/Lat1; design: method as in PMID 11557028, PMID 15567481, PMID 19890975; settings: human LAT1 transfected cells or cancer cells expressing hLAT1 or rodent Lat1; read-out: Affinity (Km), previously reported values; cited from earlier work
Lat1 [10] = biological target: T1, Lat1; test: [14C]-L-Leu uptake kinetics in primary astrocytes; settings: 0.76–75 µM, 2.5 min
Lat1 [11] = biological target: T1, Lat1; test: [14C]-L-Leu uptake kinetics in primary cortical neurons; settings: 0.76–75 µM, 2.5 min
Lat1 [12] = biological target: T1, Lat1; test: [14C]-L-Leu uptake kinetics in immortalized microglia (BV2); settings: 0.76–75 µM, 2.5 min
Lat1 [13] = biological target: T1, Lat1; test: [14C]-L-Leu uptake kinetics, primary cortical neurons and immortalized microglia (joint range); settings: range over primary cortical neurons and immortalized microglia
[14] = 400 µM, read-out: Half-life of bioconversion

Compound: O=C1OCc2cc(-c3ccc(-c4ccc(CO)cc4)s3)ccc21 [D1, reference compound]
- Brain Protein Binding fu (%) [1]: 0.03%

- Cell uptake (mouse primary neurons): below LLOQ
Compound: COc1cc(/C=C/C(=O)O)ccc1O [D3, ferulic acid, reference compound]
- Cell uptake [2]: below LLOQ
- Amount in cells (under the detection limit) ([3]; neurons and microglia): < 1.0 nM
- Brain Protein Binding fu (%) [1]: 26.0%

Compound: N[C@H](Cc1cccc(C(=O)OCc2ccc(-c3ccc(-c4ccc5c(c4)COC5=O)s3)cc2)c1)C(=O)O [PD1]
- Uptake of prodrug relative to its parent drug ([3]; neurons and microglia): 10–17
- half-life at 400 µM ([4]; tissue homogenate, immortalized microglia homogenate, 400 µM, read-out: Half-life of bioconversion): 3.96 ± 0.738 h
- half-life at 400 µM [5, 14]: 5.81 ± 0.402 h
- Half-life in brain S9 subcellular fraction ([6]; in vitro, listed as Prodrug 1): approximately 4.7 h
- Half-life in brain S9 subcellular fraction ([6]; in vitro, listed as prodrug 1): approximately 5 h
- Half-life in vivo ([7]; brain): 1.4 h
- Half-life in vivo ([7]; liver): 1.25 h
- Half-life in vivo ([7]; plasma): 1.57 h
- Brain Protein Binding fu (%) [1]: 1.4%

Compound: CC(C(=O)Nc1cccc(C[C@H](N)C(=O)O)c1)c1cccc(C(=O)c2ccccc2)c1 (some centres unmarked) [PD2]
- Uptake of prodrug relative to ketoprofen (mouse primary astrocytes): 10–80 times
- Uptake of prodrug relative to parent drug 2 [3]: 1–7 times
- Stability in cell homogenate ([4]; microglia homogenate): completely stable
- Stability in cell homogenate ([5]; astrocytes homogenate): completely stable
- Stability in brain S9 subcellular fraction ([6]; in vitro media lack co-factors): stable and do not release ketoprofen at all
- Half-life in vivo (release of ketoprofen) ([7]; brain): 0.45 h
- Half-life in vivo (release of ketoprofen) ([7]; liver): 0.383 h
- Half-life in vivo (release of ketoprofen) ([7]; plasma): 0.267 h
- Brain Protein Binding fu (%) [1]: 6.2%

Compound: CC(C(=O)Oc1cccc(C[C@H](N)C(=O)O)c1)c1cccc(C(=O)c2ccccc2)c1 (some centres unmarked) [PD3]
- Uptake of prodrug relative to ketoprofen (mouse primary astrocytes): 10–80 times
- Uptake of prodrug relative to parent drug 2 [3]: 1–7 times
- half-life at 400 µM ([4]; immortalized BV2 microglia homogenate, immortalized microglia homogenate, 400 µM, read-out: Half-life of bioconversion): 3.35 ± 0.224 h
- half-life at 400 µM [5, 14]: 4.71 ± 0.263 h
- Half-life in brain S9 subcellular fraction ([6]; approximate): ~1 h
- t½ in mouse brain S9 subcellular fraction ([6]; conversion to ketoprofen): 0.866 ± 0.0387 h
- Inhibition of prodrug uptake by LAT1/Lat1-inhibitor (Lat1 [8]; 1 µM prodrug): 47.41–58.32%

Compound: COc1cc(/C=C/C(=O)NCc2cccc(C[C@@H](N)C(=O)O)c2)ccc1O [PD4]
- Stability in cell homogenate ([4]; microglia homogenate): stable
- Stability in cell homogenate ([5]; astrocytes homogenate): stable
- Effect on cell viability [9]: slightly increased the cell proliferation
- Brain Protein Binding fu (%) [1]: 13.0%
- Inhibition of prodrug uptake by LAT1/Lat1-inhibitor (Lat1 [8]; 10 µM prodrug): 83.24–85.23%

Compound: COc1cc(/C=C/C(=O)Nc2cccc(C[C@H](N)C(=O)O)c2)ccc1O [PD5]
- Stability in cell homogenate ([4]; microglia homogenate): stable
- Stability in cell homogenate ([5]; astrocytes homogenate): stable
- Effect on cell viability [9]: slightly increased the cell proliferation
- Brain Protein Binding fu (%) [1]: 7.0%

Compound: COc1cc(/C=C/C(=O)Oc2cccc(C[C@H](N)C(=O)O)c2)ccc1O [PD6]
- half-life at 400 µM ([4]; tissue homogenate, microglia homogenate, read-out: Estimated half-life of bioconversion): > 9 h
- half-life at 400 µM ([5]; astrocytes homogenate, read-out: Estimated half-life of bioconversion): > 9 h
- Intact prodrug detected after 5 h ([6]; brain S9 subcellular fraction): 70%

- Km (Lat1 [10]): 65.9 ± 14.3 µM
- Vmax (Lat1 [10]): 2.92 ± 0.36 nmol/min/mg protein
- Km (Lat1 [11]): 146 ± 47.3 µM
- Vmax (Lat1 [11]): 1.90 ± 0.44 nmol/min/mg protein
Compound: CC(C)C[C@H](N)C(=O)O [[^14C]-L-Leu, L-leucine]
- Km (LAT1/Lat1): 9 to 52 µM
- Vmax (Lat1 [12]): 0.84 ± 0.12 nmol/min/mg protein
- Km (Lat1 [13]): 85.8 to 146 µM
- Vmax (Lat1 [13]): 0.84–1.90 nmol/min/mg of protein
